In brackets after ≈: the same amount, converted by molar mass.
Assays:
Test in all cases: microbe, parasite or virus in culture
Type in all cases: functional
Staphylococcus aureus [1] = conditions: ATCC 25923, 24 h
Description: Antibacterial activity against methicillin- resistant Staphylococcus aureus ATCC 25923 after 24 hrs by spectrophotometry

Klebsiella pneumoniae = conditions: ATCC 27736, 24 h
Description: Antibacterial activity against Klebsiella pneumoniae ATCC 27736 after 24 hrs by spectrophotometry

Staphylococcus aureus [2] = conditions: ATCC 29213, 24 h
Description: Antibacterial activity against methicillin- resistant and vancomycin resistant Staphylococcus aureus ATCC 29213 after 24 hrs by spectrophotometry

SMILES	MIC (Staphylococcus aureus [1]) [µg/mL]	MIC (Klebsiella pneumoniae) [µg/mL]	MIC (Staphylococcus aureus [2]) [µg/mL]
CCn1cc(C(=O)O)c(=O)c2cc(F)c(N3CCN(c4cc(C)nc(N5CCCCC5)n4)CC3)c(F)c21	0.39 (≈ 0.761 µM)	0.045 (≈ 0.0878 µM)	0.39 (≈ 0.761 µM)
CCn1cc(C(=O)O)c(=O)c2cc(F)c(N3CCN(c4nc(N5CCOCC5)nc(N5CCOCC5)n4)CC3)c(F)c21	3.12 (≈ 5.32 µM)	3.12 (≈ 5.32 µM)	
O=C(O)c1cn(Cc2ccc(C(F)(F)F)cc2)c2c(F)c(N3CCN(c4nc(N5CCCCC5)nc(N5CCCCC5)n4)CC3)c(F)cc2c1=O	50 (≈ 70.2 µM)	50 (≈ 70.2 µM)	
O=C(O)c1cn(C2CC2)c2cc(N3CCNCC3)c(F)cc2c1=O [CIPROFLOXACIN]	0.09 (≈ 0.272 µM)	0.19 (≈ 0.573 µM)	0.38 (≈ 1.15 µM)
CCCNc1c(F)cc2c(=O)c(C(=O)O)cn(CC)c2c1F	12.5 (≈ 40.3 µM)	0.78 (≈ 2.51 µM)	
CCn1cc(C(=O)O)c(=O)c2cc(F)c(N3CCN(c4cc(C)nc(N5CCOCC5)n4)CC3)c(F)c21	0.39 (≈ 0.758 µM)	0.045 (≈ 0.0875 µM)	0.045 (≈ 0.0875 µM)
CCn1cc(C(=O)O)c(=O)c2cc(F)c(N3CCN(c4cc(C)nc(NCCN5CCOCC5)n4)CC3)c(F)c21	0.22 (≈ 0.395 µM)	0.22 (≈ 0.395 µM)	0.19 (≈ 0.341 µM)
O=C(O)c1cn(Cc2ccc(C(F)(F)F)cc2)c2c(F)c(N3CCN(c4nc(NCCCN5CCOCC5)nc(NCCCN5CCOCC5)n4)CC3)c(F)cc2c1=O	> 50	50 (≈ 60.2 µM)	
CCn1cc(C(=O)O)c(=O)c2cc(F)c(N3CCCCC3)c(F)c21	0.19 (≈ 0.565 µM)	0.19 (≈ 0.565 µM)	0.39 (≈ 1.16 µM)
CCn1cc(C(=O)O)c(=O)c2cc(F)c(N3CCN(c4cc(C)nc(NCCCN5CCOCC5)n4)CC3)c(F)c21	0.22 (≈ 0.385 µM)	0.22 (≈ 0.385 µM)	0.19 (≈ 0.332 µM)
CCCNc1nc(NCCC)nc(N2CCN(c3c(F)cc4c(=O)c(C(=O)O)cn(CC)c4c3F)CC2)n1	0.78 (≈ 1.47 µM)	0.19 (≈ 0.358 µM)	0.78 (≈ 1.47 µM)
CN1CCN(c2c(F)cc3c(=O)c(C(=O)O)cn(Cc4ccc(C(F)(F)F)cc4)c3c2F)CC1	> 50	> 50	
Cc1cc(N2CCN(c3c(F)cc4c(=O)c(C(=O)O)cn(Cc5ccc(C(F)(F)F)cc5)c4c3F)CC2)nc(NC(C)C)n1	0.78 (≈ 1.27 µM)	0.19 (≈ 0.308 µM)	0.78 (≈ 1.27 µM)
CCn1cc(C(=O)O)c(=O)c2cc(F)c(N3CCN(C)CC3)c(F)c21	0.19 (≈ 0.541 µM)	0.011 (≈ 0.0313 µM)	0.19 (≈ 0.541 µM)
CCn1cc(C(=O)O)c(=O)c2cc(F)c(NCCN3CCOCC3)c(F)c21	3.12 (≈ 8.18 µM)	1.56 (≈ 4.09 µM)	
CCn1cc(C(=O)O)c(=O)c2cc(F)c(NC(C)C)c(F)c21	0.78 (≈ 2.51 µM)	0.09 (≈ 0.29 µM)	0.78 (≈ 2.51 µM)
CCCCNc1nc(C)cc(N2CCN(c3c(F)cc4c(=O)c(C(=O)O)cn(CC)c4c3F)CC2)n1	0.78 (≈ 1.56 µM)	0.78 (≈ 1.56 µM)	0.09 (≈ 0.18 µM)
Cc1cc(N2CCN(c3cc4c(cc3F)c(=O)c(C(=O)O)cn4Cc3ccc(C(F)(F)F)cc3)CC2)nc(N2CCN(C)CC2)n1	6.25 (≈ 9.77 µM)	6.25 (≈ 9.77 µM)	12.5 (≈ 19.5 µM)
CCn1cc(C(=O)O)c(=O)c2cc(F)c(N3CCNCC3)cc21 [NORFLOXACIN]	0.78 (≈ 2.44 µM)	0.39 (≈ 1.22 µM)	1.56 (≈ 4.89 µM)
CCCCNc1nc(NCCCC)nc(N2CCN(c3c(F)cc4c(=O)c(C(=O)O)cn(CC)c4c3F)CC2)n1	0.39 (≈ 0.698 µM)	0.39 (≈ 0.698 µM)	0.39 (≈ 0.698 µM)
O=C(O)c1cn(Cc2ccc(C(F)(F)F)cc2)c2c(F)c(N3CCN(c4nc(NCCN5CCOCC5)nc(NCCN5CCOCC5)n4)CC3)c(F)cc2c1=O	12.5 (≈ 15.6 µM)	6.25 (≈ 7.79 µM)	

SMILES	MIC (Staphylococcus aureus [1]) [µg/mL]	MIC (Klebsiella pneumoniae) [µg/mL]	MIC (Staphylococcus aureus [2]) [µg/mL]
CCn1cc(C(=O)O)c(=O)c2cc(F)c(N3CCN(c4cc(C)nc(NC(C)C)n4)CC3)c(F)c21	0.22 (≈ 0.452 µM)	0.011 (≈ 0.0226 µM)	0.19 (≈ 0.391 µM)
CCn1cc(C(=O)O)c(=O)c2cc(F)c(NC(C)(C)C)c(F)c21	12.5 (≈ 38.5 µM)	0.09 (≈ 0.277 µM)	
CCCNc1c(F)cc2c(=O)c(C(=O)O)cn(Cc3ccc(C(F)(F)F)cc3)c2c1F	1.56 (≈ 3.54 µM)	3.12 (≈ 7.08 µM)	
CCN1CCN(c2c(F)cc3c(=O)c(C(=O)O)cn(CC)c3c2F)CC1	0.78 (≈ 2.13 µM)	0.19 (≈ 0.52 µM)	0.39 (≈ 1.07 µM)
CCCCNc1nc(C)cc(N2CCN(c3c(F)cc4c(=O)c(C(=O)O)cn(Cc5ccc(C(F)(F)F)cc5)c4c3F)CC2)n1	6.25 (≈ 9.91 µM)	6.25 (≈ 9.91 µM)	1.56 (≈ 2.47 µM)
CC(C)Nc1c(F)cc2c(=O)c(C(=O)O)cn(Cc3ccc(C(F)(F)F)cc3)c2c1F	3.12 (≈ 7.08 µM)	1.56 (≈ 3.54 µM)	
CCCCNc1nc(NCCCC)nc(N2CCN(c3c(F)cc4c(=O)c(C(=O)O)cn(Cc5ccc(C(F)(F)F)cc5)c4c3F)CC2)n1	3.12 (≈ 4.53 µM)	0.39 (≈ 0.566 µM)	0.39 (≈ 0.566 µM)
CC(C)Nc1nc(NC(C)C)nc(N2CCN(c3c(F)cc4c(=O)c(C(=O)O)cn(Cc5ccc(C(F)(F)F)cc5)c4c3F)CC2)n1	0.78 (≈ 1.18 µM)	0.39 (≈ 0.59 µM)	0.78 (≈ 1.18 µM)
CCn1cc(C(=O)O)c(=O)c2cc(F)c(N3CCN(c4nc(N5CCCCC5)nc(N5CCCCC5)n4)CC3)c(F)c21	> 50	> 50	
CCCCNc1c(F)cc2c(=O)c(C(=O)O)cn(Cc3ccc(C(F)(F)F)cc3)c2c1F	> 50	> 50	
CN1CCN(c2nc(N3CCN(C)CC3)nc(N3CCN(c4cc5c(cc4F)c(=O)c(C(=O)O)cn5Cc4ccc(C(F)(F)F)cc4)CC3)n2)CC1	25 (≈ 34.5 µM)	12.5 (≈ 17.2 µM)	
CC(C)(C)Nc1nc(NC(C)(C)C)nc(N2CCN(c3c(F)cc4c(=O)c(C(=O)O)cn(Cc5ccc(C(F)(F)F)cc5)c4c3F)CC2)n1	3.12 (≈ 4.53 µM)	1.56 (≈ 2.27 µM)	6.25 (≈ 9.08 µM)
CCn1cc(C(=O)O)c(=O)c2cc(F)c(N3CCOCC3)c(F)c21	0.022 (≈ 0.065 µM)	0.022 (≈ 0.065 µM)	0.045 (≈ 0.133 µM)
CCn1cc(C(=O)O)c(=O)c2cc(F)c(N3CCN(c4nc(NC(C)C)nc(NC(C)C)n4)CC3)c(F)c21	0.39 (≈ 0.735 µM)	0.39 (≈ 0.735 µM)	0.78 (≈ 1.47 µM)
O=C(O)c1cn(Cc2ccc(C(F)(F)F)cc2)c2c(F)c(N3CCN(Cc4ccccc4)CC3)c(F)cc2c1=O	1.56 (≈ 2.8 µM)	1.56 (≈ 2.8 µM)	
CCn1cc(C(=O)O)c(=O)c2cc(F)c(N3CCN(c4nc(N5CCN(C)CC5)nc(N5CCN(C)CC5)n4)CC3)cc21	0.39 (≈ 0.656 µM)	0.39 (≈ 0.656 µM)	0.39 (≈ 0.656 µM)
CCn1cc(C(=O)O)c(=O)c2cc(F)c(N3CCN(Cc4ccccc4)CC3)c(F)c21	0.19 (≈ 0.444 µM)	0.011 (≈ 0.0257 µM)	0.19 (≈ 0.444 µM)
Cc1cc(N2CCN(c3c(F)cc4c(=O)c(C(=O)O)cn(Cc5ccc(C(F)(F)F)cc5)c4c3F)CC2)nc(N2CCOCC2)n1	1.56 (≈ 2.42 µM)	0.78 (≈ 1.21 µM)	1.56 (≈ 2.42 µM)
CCCCNc1c(F)cc2c(=O)c(C(=O)O)cn(CC)c2c1F	0.39 (≈ 1.2 µM)	0.022 (≈ 0.0678 µM)	0.39 (≈ 1.2 µM)
O=C(O)c1cn(Cc2ccc(C(F)(F)F)cc2)c2c(F)c(N3CCNCC3)c(F)cc2c1=O	> 50	12.5 (≈ 26.7 µM)	
CCn1cc(C(=O)O)c(=O)c2cc(F)c(N3CCN(c4nc(NC(C)(C)C)nc(NC(C)(C)C)n4)CC3)c(F)c21	3.12 (≈ 5.59 µM)	0.39 (≈ 0.698 µM)	

SMILES	MIC (Staphylococcus aureus [1]) [µg/mL]	MIC (Klebsiella pneumoniae) [µg/mL]	MIC (Staphylococcus aureus [2]) [µg/mL]
Cc1cc(N2CCN(c3c(F)cc4c(=O)c(C(=O)O)cn(Cc5ccc(C(F)(F)F)cc5)c4c3F)CC2)nc(NC(C)(C)C)n1	1.56 (≈ 2.47 µM)	0.19 (≈ 0.301 µM)	1.56 (≈ 2.47 µM)
O=C(O)c1cn(Cc2ccc(C(F)(F)F)cc2)c2c(F)c(NCCCN3CCOCC3)c(F)cc2c1=O	> 50	25 (≈ 47.6 µM)	
CCCNc1nc(C)cc(N2CCN(c3c(F)cc4c(=O)c(C(=O)O)cn(Cc5ccc(C(F)(F)F)cc5)c4c3F)CC2)n1	1.56 (≈ 2.53 µM)	1.56 (≈ 2.53 µM)	3.12 (≈ 5.06 µM)
CCCNc1nc(NCCC)nc(N2CCN(c3c(F)cc4c(=O)c(C(=O)O)cn(Cc5ccc(C(F)(F)F)cc5)c4c3F)CC2)n1	1.56 (≈ 2.36 µM)	0.78 (≈ 1.18 µM)	1.56 (≈ 2.36 µM)
O=C(O)c1cn(Cc2ccc(C(F)(F)F)cc2)c2c(F)c(N3CCN(c4ccccc4)CC3)c(F)cc2c1=O	0.78 (≈ 1.44 µM)	0.39 (≈ 0.718 µM)	1.56 (≈ 2.87 µM)
Cc1cc(N2CCN(c3c(F)cc4c(=O)c(C(=O)O)cn(Cc5ccc(C(F)(F)F)cc5)c4c3F)CC2)nc(N2CCCCC2)n1	0.78 (≈ 1.21 µM)	0.39 (≈ 0.607 µM)	0.39 (≈ 0.607 µM)
CCN1CCN(c2c(F)cc3c(=O)c(C(=O)O)cn(Cc4ccc(C(F)(F)F)cc4)c3c2F)CC1	> 50	> 50	
O=C(O)c1cn(Cc2ccc(C(F)(F)F)cc2)c2c(F)c(N3CCCCC3)c(F)cc2c1=O	> 50	12.5 (≈ 26.8 µM)	
Cc1cc(N2CCN(c3c(F)cc4c(=O)c(C(=O)O)cn(Cc5ccc(C(F)(F)F)cc5)c4c3F)CC2)nc(NCCN2CCOCC2)n1	0.78 (≈ 1.13 µM)	1.56 (≈ 2.27 µM)	1.56 (≈ 2.27 µM)
CCn1cc(C(=O)O)c(=O)c2cc(F)c(N3CCNCC3)c(F)c21	0.78 (≈ 2.31 µM)	0.045 (≈ 0.133 µM)	0.39 (≈ 1.16 µM)
O=C(O)c1cn(Cc2ccc(C(F)(F)F)cc2)c2c(F)c(N3CCN(c4nc(N5CCOCC5)nc(N5CCOCC5)n4)CC3)c(F)cc2c1=O	3.12 (≈ 4.35 µM)	1.56 (≈ 2.18 µM)	1.56 (≈ 2.18 µM)
CCn1cc(C(=O)O)c(=O)c2cc(F)c(N3CCN(c4nc(NCCCN5CCOCC5)nc(NCCCN5CCOCC5)n4)CC3)c(F)c21	12.5 (≈ 17.8 µM)	12.5 (≈ 17.8 µM)	
O=C(O)c1cn(Cc2ccc(C(F)(F)F)cc2)c2c(F)c(NCCN3CCOCC3)c(F)cc2c1=O	> 50	12.5 (≈ 24.4 µM)	
CC(C)(C)Nc1c(F)cc2c(=O)c(C(=O)O)cn(Cc3ccc(C(F)(F)F)cc3)c2c1F	> 50	> 50	
CCn1cc(C(=O)O)c(=O)c2cc(F)c(N3CCN(c4cc(C)nc(NC(C)(C)C)n4)CC3)c(F)c21	1.56 (≈ 3.12 µM)	0.78 (≈ 1.56 µM)	0.78 (≈ 1.56 µM)
CCn1cc(C(=O)O)c(=O)c2cc(F)c(N3CCN(c4ccccc4)CC3)c(F)c21	0.39 (≈ 0.943 µM)	0.09 (≈ 0.218 µM)	0.09 (≈ 0.218 µM)
O=C(O)c1cn(Cc2ccc(C(F)(F)F)cc2)c2c(F)c(N3CCOCC3)c(F)cc2c1=O	12.5 (≈ 26.7 µM)	12.5 (≈ 26.7 µM)	
Cc1cc(N2CCN(c3c(F)cc4c(=O)c(C(=O)O)cn(Cc5ccc(C(F)(F)F)cc5)c4c3F)CC2)nc(NCCCN2CCOCC2)n1	25 (≈ 35.6 µM)	6.25 (≈ 8.91 µM)	
CCn1cc(C(=O)O)c(=O)c2cc(F)c(NCCCN3CCOCC3)c(F)c21	3.12 (≈ 7.89 µM)	1.56 (≈ 3.95 µM)	
CCn1cc(C(=O)O)c(=O)c2cc(F)c(N3CCN(c4cc(C)nc(N5CCN(C)CC5)n4)CC3)cc21	> 50	> 50	

From ChEMBL document CHEMBL1759957, “Synthesis and antibacterial evaluation of novel 8-fluoro Norfloxacin derivatives as potential probes for methicillin and vancomycin-resistant Staphylococcus aureus” (2011)
